{
  "source": "ChEMBL document CHEMBL1240518",
  "about": "“Replacement of the Lys linker with an Arg linker resulting in improved melanoma uptake and reduced renal uptake of Tc-99m-labeled Arg-Gly-Asp-conjugated alpha-melanocyte stimulating hormone hybrid peptide” (Bioorg Med Chem, 2010)",
  "experiment": "Cytotoxicity against mouse B16-F1 cells assessed as reduction of cell survival after 3 hrs by clonogenic assay relative to control",
  "note": "Residues, ends and D or L forms follow the SMILES beside them.",
  "data": [
    {"compound": "N=C(N)NCCC[C@@H]1NC(=O)CNC(=O)[C@H](CC(=O)O)NC(=O)[C@H](Cc2ccc(O)cc2)NC(=O)[C@H](CC(=O)O)NC1=O", "note": "(cyclo(DGRDY))", "values": [
      {"measurement": "Activity", "result": 7, "unit": "%"}
    ]}
  ]
}
